# What was measured:
# GSCs from xenograft 3691 = assay: Intracranial implantation of pre-exposed GSCs (tumor initiation); assay type: in vivo, mice
# Experimental: All animal studies described were approved by the Cleveland Clinic Foundation Institutional Animal Care and Use Committee and conducted in accordance with the NIH Guide for the Care and Use of Laboratory Animals. For subcutaneous tumor studies, 1×10^5 freshly dissociated GBM cells from a xenograft originally derived from a primary GBM patient specimen (3691) were injected into the flanks of 10 six week old female athymic nu/nu mice. Tumors were allowed to reach approximately 0.12 cm^3, at which point animals were randomized into either vehicle control (DMSO) group or ispinesib (10 mg/kg given daily for 7 consecutive days by intraperitoneal injection) (Selleck Chemicals, Houston, Tex.). Tumors were monitored and measured daily using perpendicular diameter measurements for 7 days. Tumor volume was calculated using the ellipsoid formula π/6×larger diameter×(smaller diameter)^2. After the last treatment on Day 7, tumors were removed and weighed then processed for immunofluorescence (as described below). For intracranial implantation studies to evaluate tumor initiation by GSCs, the cells were isolated as described below and pre-exposed to drug or vehicle either in vitro or in vivo. […] Mice were monitored daily for neurological impairment at which time they were sacrificed and brains removed to evaluate for tumor development.
# [1] = tested on: glioblastoma stem cells (GSCs); assay: Dose response cell viability, CellTiter-Glo ATP-based assay, GSCs; conditions: Homo sapiens, 0 to 32 nM, 72 hours
# Description: Human tissues were acquired from primary human brain tumor patient specimens in accordance with appropriate approved Institutional Review Board protocols. Tumor grade and available cytogenetic information for each specimen has been previously described. Tumor specimens were maintained through subcutaneous xenografts in the flanks of athymic Nu/Nu or NSG mice. Tumors were dissociated using a papain dissociation system (Worthington Biochemical, Lakewood, N.J.). […]
# The half maximal effective concentration of ispinesib for acutely dissociated and MACS sorted matched GSCs and NSTCs was determined by plating, in triplicate, 1,000 cells per well of a 96 well plate pre-coated with GelTrex in growth-factor free Neuralbasal media. […] Viability was measured at 72 hours using CellTiter-Glo ATP-based assay (Promega, Madison, Wis.) read on a luminometer (Perkin-Elmer, Waltham, Mass.). […] The next day, cells were exposed to 3 nM ispinesib or vehicle (DMSO) and viability was measured daily for 5 days using CellTiter-Glo. Day 0 reading were taken immediately after addition of drug or vehicle. SubG1 for GSCs and NSTCs was determined by flow cytometry for propidium iodide and gated as the events below the 2N G1 peak of the resulting histogram. […] Cells were fixed at Day 0 through Day 4 in 100% cold ethanol and simultaneously processed for flow analysis with 20,000 events analyzed per condition.
# 08-387 GSCs = assay: Wound assay, tubulin immunofluorescence; assay type: cell-based, human; conditions: 200 nM; 6 hours
# Experimental: Interphase enriched 08-387 GSCs were seeded within two-well culture inserts (ibidi, Verona, Wis.) at 2×10^5 cells per ml in triplicate (final volume of 80 μl per well) onto Geltrex coated glass bottom 6 well pates (MatTek Corp., Ashland, Mass.). After 2 hours, the insert was removed and cells were exposed to vehicle or 200 nM ispinesib. 6 hours later, cells were fixed and processed for immunofluorescence as described for atubulin. 20 Z-stack images at the wound edge were captured per condition using the 40× objective on a Leica DMI6000 inverted microscope. Images were then exported aa tif files using Velocity software (Mountain View, Calif.) and analyzed in ImageJ (NIH, Bethesda, Md.). Regions of interest were drawn for the primary cell layer at the wound edge for 3 independent scans per Z-stack representing the top, middle and bottom portion of the cell layer and pixel intensity and area measured.
# matched GSCs and NSTCs = assay: Long-term viability assay, CellTiter-Glo, 5 days; assay type: cell-based, human; conditions: 3 nM; two matched GSCs and NSTCs
# Experimental: The half maximal effective concentration of ispinesib for acutely dissociated and MACS sorted matched GSCs and NSTCs was determined by plating, in triplicate, 1,000 cells per well of a 96 well plate pre-coated with GelTrex in growth-factor free Neuralbasal media. The next day, cells were exposed to 2-fold increasing concentrations of ispinesib spanning from 0 to 32 nM. Viability was measured at 72 hours using CellTiter-Glo ATP-based assay (Promega, Madison, Wis.) read on a luminometer (Perkin-Elmer, Waltham, Mass.). For long-term viability assays, 500 cells per well were plated in triplicate into 96-well plates as above. The next day, cells were exposed to 3 nM ispinesib or vehicle (DMSO) and viability was measured daily for 5 days using CellTiter-Glo. Day 0 reading were taken immediately after addition of drug or vehicle. SubG1 for GSCs and NSTCs was determined by flow cytometry for propidium iodide and gated as the events below the 2N G1 peak of the resulting histogram. Analysis was done following treatment of 100,000 cells with vehicle or 3 nM ispinesib. Cells were fixed at Day 0 through Day 4 in 100% cold ethanol and simultaneously processed for flow analysis with 20,000 events analyzed per condition.
smiles,measurement,setting,value
"Cc1ccc(C(=O)N(CCCN)[C@@H](c2nc3cc(Cl)ccc3c(=O)n2Cc2ccccc2)C(C)C)cc1 [ispinesib, N-(3-amino-propyl)-n-[R-1-(3-benzyl-7-choloro-4-oxo-3,4-dihydroquinazolin-2-yl)-2-methyl-propyl]-4-methyl-benzamide methanesulfonate]",tumor initiation,"GSCs from xenograft 3691; GSCs from subcutaneous tumors treated in vivo 3 days with 10 mg/kg, 1,000 or 10,000 cells per mouse",reduced their tumor initiation phenotype
same,secondary tumor initiation,"GSCs from xenograft 3691; GSCs pretreated in vitro 18 hours with 3 nM, 2,500 or 25,000 cells per mouse",significant impairment of secondary tumor initiation
same,EC50,[1],1.15 ± 0.35 nM
same,polymerized tubulin at wound edge,08-387 GSCs,significant decrease in polymerized tubulin
same,cell viability over five-day time course,matched GSCs and NSTCs,Both populations demonstrated sensitivity
